Source: patent US8637443B2, “Cleaning compositions and methods comprising a hydrofluoro-olefin or hydrochlorofluoro-olefin solvent” (Honeywell International Inc., priority 2008, dated 2014)

Experiment: toxicity (comparative statement, no method given)
Details: in comparison to CF3CH═CF2 (HFO-1225zc)

For `FC=C(F)C(F)(F)F` [HFO-1225yez, 1,1,1,2,3 pentafluoropropene], the degree of toxicity was “relatively low degree of toxicity”.
